Results: BindingDB's records for doi:10.1124/mol.52.3.337 (The Schering Plough Research Institute, 1997)
Non-standard residues stand in square brackets, D forms with d. Residues, ends and D or L forms follow the SMILES beside them.

molecular target: T1, Galanin receptor type 2 (Rattus norvegicus, UniProt O08726)
T1 sequence (O08726 whole entry): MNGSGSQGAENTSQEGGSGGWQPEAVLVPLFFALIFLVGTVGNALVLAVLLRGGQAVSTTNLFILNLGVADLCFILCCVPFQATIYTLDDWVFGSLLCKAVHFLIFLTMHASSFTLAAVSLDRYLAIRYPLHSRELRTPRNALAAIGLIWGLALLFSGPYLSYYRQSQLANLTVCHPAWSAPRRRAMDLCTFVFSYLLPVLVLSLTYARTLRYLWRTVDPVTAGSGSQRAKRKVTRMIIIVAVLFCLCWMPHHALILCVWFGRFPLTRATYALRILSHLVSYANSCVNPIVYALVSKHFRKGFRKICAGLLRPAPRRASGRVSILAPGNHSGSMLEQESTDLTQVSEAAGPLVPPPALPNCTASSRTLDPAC

In order of rising Ki:
1. CC(C)C[C@H](NC(=O)[C@H](CC(C)C)NC(=O)[C@@H](Cc1c[nH]c2ccccc12)NC(=O)[C@H](Cc1ccccc1)NC(=O)[C@@H](Cc1c[nH]c2ccccc12)NC(=O)[C@H](CCC(N)=O)NC(=O)[C@H](CCC(N)=O)NC(=O)[C@@H]1CCCN1C(=O)[C@H](CCCCN)NC(=O)[C@@H]1CCCN1C(=O)[C@@H](CCCNC(=N)N)NC(=O)[C@@H]1CCCN1C(=O)CNC(=O)[C@H](CC(C)C)NC(=O)[C@H](CC(C)C)NC(=O)[C@H](Cc1ccc(O)cc1)NC(=O)CNC(=O)[C@H](C)NC(=O)[C@H](CO)NC(=O)[C@H](CC(N)=O)NC(=O)[C@H](CC(C)C)NC(=O)[C@@H](NC(=O)[C@H](Cc1c[nH]c2ccccc12)NC(=O)CN)[C@@H](C)O)C(N)=O [Gal(1-13)-Std I] (H-GWTLNSAGYLLGP[dR]PKPQQ[dW]F[dW]LL-NH2)  9.1 nM
2. H-GWTLNSAGYLLGPPPALALA-NH2 [M40]  18 nM
3. H-ELEPEDEARPGGFDRLQSQDKAIRTIMEFLAFLHLKEAGAL-NH2 [GMAP (1-41)]  840 nM
